Among the data in a melting point compilation (Tetko et al.; mined from patent text by program, amines drawn as free bases though some values may be those of a salt) are melting point values, retold here.

A word on the melting point: it is the temperature of the solid-liquid transition.

Compound `Cc1ccc(-c2cc(F)c(F)cc2-c2ccc(S(C)(=O)=O)cc2)cc1` registered a melting point of 147 to 148 °C.

As to `CCCOc1ccc(C)cc1C(=N)OCC`, the melting point fell in the range of 148 to 150 °C.

In the case of `Cc1ccc(O)c(C(=O)C2CC2)c1`, the melting point fell in the range of 66 to 68 °C.

Compound `c1csc(-c2noc(COc3ccc(CCCn4ccnc4)cc3)n2)c1` displayed a melting point of 118 to 119 °C.

Turning to `Cc1cc(C(C)(C)c2ccc(O)cc2)ccc1O`, the melting point is 112 to 113 °C.

In the case of `Cc1cccc(S(=O)(=O)Cc2c(C(F)(F)F)n[nH]c2O)c1`, the melting point was 130 to 133 °C.

The compound `COC(=O)CCCc1cc2nc(Cl)ccc2n1S(=O)(=O)c1cccc(OC)c1` showed a melting point of 90 °C.

Consider `COc1nc(C)c(N2CCCn3c2nc2c(Cl)ccc(C(OCC(F)(F)F)C4CC4)c23)c(C)n1` (stereo not drawn), for which the melting point is 225 to 227 °C.

The compound `O=C(N[C@H](Cc1ccc(C(F)(F)F)cc1)[C@@H](O)c1ccc(F)cc1)c1cccc2c1C(=O)c1ccccc1-2` (racemic) displayed a melting point of 185 to 186 °C.

`COCN1C(C)=C(C(=O)OCOC(=O)C(C)(C)C)C(c2cccc([N+](=O)[O-])c2)C(C(=O)OCOC(=O)C(C)(C)C)=C1C` registered a melting point of 73 to 74 °C.

The compound `CCCCc1ccc(COC(=O)NC2CN3CCC2CC3)cc1` (stereo not drawn) yielded a melting point of 174 to 175 °C.

The compound `CN=C(NC#N)N1CC1` registered a melting point of 130 to 132 °C.

`CC(C)(C)OC(=O)CN(Cc1ccccn1)c1cc(C(F)(F)F)c(Br)c(C(F)(F)F)c1` gave a melting point of 77 to 78 °C.

Take `CCCCCCCCCC(O)CNCCCNCC(O)CCCCCCCCC` (stereo not drawn): the melting point was 94 to 103 °C.

Compound `CCC1(CCCCN2CCN(c3ccccn3)CC2)C(=O)Nc2c(Cl)cc(Cl)cc21` (stereo not drawn) showed a melting point of 144 to 146 °C.

Consider `Cc1[nH]c(C(N)=O)c(C)c1-c1ccnc(Nc2ccc(F)cc2)n1`, for which the melting point lay within 93.5 to 96.8 °C.

Take `CC(C)(C)c1cc(OCc2ccc(C(=O)O)cc2)cc(C(C)(C)C)c1`: the melting point was in the range of 212 to 215 °C.

For the compound `CC(=O)Nc1ccc(NCC(=O)C23CC4CC(CC(C4)C2)C3)cc1`, the melting point lay within 156 to 158 °C.

For the compound `O=C1NC2COc3cc4c(cc3C2c2ccsc21)OCO4` (stereo not drawn), the melting point was over 250 °C.

In turn, `Cc1oc(-c2ccccc2)nc1COc1ccc(CCOS(C)(=O)=O)cc1` displayed a melting point of 66 to 67 °C.

As to `COC1=C(OC)C(=O)c2ccccc2C1=O`, the melting point lay within 116 to 117 °C.

Turning to `CCOc1cc(CCCN2CCc3cc(OC)c(OC)cc3C2)ccc1NC(=O)c1cccc2c(=O)c3cccc(F)c3[nH]c12`, the melting point was found to be 200 °C.

In turn, `N#Cc1ncn2c1N(C(=O)CN1CCN(Cc3ccccc3)CC1)CC=C2c1cccc(C(F)(F)F)c1` displayed a melting point of 167 to 169 °C.

Compound `COCOc1ccc(-c2ncc3ccc(-c4csc(CN5CCCCC5)c4)nc3n2)cc1` had a melting point of over 268 °C.

`Cc1onc(C(=O)c2ccccc2Cl)c1N` returned a melting point of 75 to 78 °C.

Regarding `CCN1CCN(Cc2ccc(-c3cc4ncc(C#N)c(Nc5cc(OC)c(Cl)cc5Cl)c4cc3OC)cc2)CC1`, the melting point was in the range of 126 to 130 °C.

`N#CC=C1CCN(c2ccc(N3C[C@@H](CN=[N+]=[N-])OC3=O)cc2F)CC1`: the melting point lay in the range of 112 to 114 °C.

In turn, `Cc1ccc(SC(Cl)=C(C(Cl)=C(Cl)Cl)[N+](=O)[O-])cc1` displayed a melting point of 110 to 111 °C.

For `CC(C)(C(=O)NC(Nc1c(Nc2cccnc2)c(=O)c1=O)C(C)(C)Cc1ccccc1)c1ccccc1` (stereo not drawn), the melting point is 228 to 231 °C.

On to `CCCc1nc(C)cn1-c1nc(OC)ccc1N`, for which the melting point lay in the range of 124 to 128 °C.

`COc1ccccc1-c1oc2cccc3c2c1C=CC3=O` registered a melting point of 144 °C.

As for `Cn1nc(C(F)F)c(C=O)c1F`, the melting point turned out to be 68 °C.

Take `COc1nc(C(F)(F)F)c(F)c(=O)n1-c1cc(C(=O)OC(C)C)c(Cl)cc1F`: the melting point lay within 104 to 106 °C.

`Cc1cc(C(=S)CBr)ccc1O`: the melting point was 118 to 120 °C.

On to `COC(=O)c1csc(-c2cc3ccccc3[nH]2)n1`, for which the melting point was 69 to 71 °C.

In the case of `COc1cc2c(cc1OC)S(=O)(=O)N(C)C(C(N)=O)C2` (stereo not drawn), the melting point is 215 to 222 °C.

`CCc1c2nc(-c3cc(S(C)(=O)=O)ccc3OCC(C)C)[nH]c(=O)c2nn1CCN1CCOCC1` registered a melting point of 268 to 273 °C.

`COc1ccc(-c2nc(OCC#N)c3cc(OC)ccc3c2[N+](=O)[O-])cc1` yielded a melting point of 192 to 194 °C.

Regarding `Cc1ccc(Cl)cc1NS(=O)(=O)c1cc(S(=O)(=O)Nc2cc(Cl)ccc2C)c2ccccc2c1`, the melting point is 125 to 127 °C.

Compound `Cc1ccc2nc(S)sc2c1` returned a melting point of 179 to 181 °C.

`NCCc1ccc(OCC2CCCO2)c(S(N)(=O)=O)c1` (stereo not drawn) gave a melting point of 135 to 140 °C.

Take `CCc1cccc(CC)c1C(=O)Nc1cccc2c1CCN(C)C2`: the melting point fell in the range of 186 to 188 °C.

Compound `CC(C)(C)OC(=O)n1cc(C(=O)C2CSC(c3cccnc3)N2C(=O)C=O)c2ccccc21` (stereo not drawn) yielded a melting point of 125 to 130 °C.

`CN1C(=O)C(=O)c2cccnc21` displayed a melting point of 162 to 163 °C.

In the case of `COC(=O)c1c(Br)c(Br)c(C(=O)OC)c(Br)c1Br`, the melting point lay in the range of 207 to 210 °C.

Compound `NC1=NN(c2ccc(C(=O)C(F)(F)F)cc2)C(c2ccccc2)C1` (stereo not drawn) gave a melting point of 214 to 216 °C.

`COC(=O)c1c(CC#N)ncn1C1OC(COC(C)=O)C(OC(C)=O)C1OC(C)=O` (stereo not drawn) yielded a melting point of 92 to 93 °C.

`COc1ccc(S(=O)(=O)N(Cc2cccnc2)[C@@H](C(=O)NOCc2ccccc2)C(C)C)cc1` displayed a melting point of 74.5 to 76 °C.

`Nc1ccc(Cl)nc1Nc1ccc2c(c1)OCO2` registered a melting point of 162 to 163 °C.

Regarding `Cc1nc[nH]c1CSCCNC(=N)NCC(C)SCc1[nH]cnc1C` (stereo not drawn), the melting point was in the range of 173 to 175 °C.

On to `CN1C(=O)CC[C@]2(C)c3ccc(-c4ccc5c(c4)C(=O)C(=O)N5)cc3CC[C@@H]12`, for which the melting point is over 250 °C.

Take `CCOC(=O)CC[C@H](NC(=O)c1ccc(NCc2cnc3nc(N)nc(N)c3c2)cc1)C(=O)OCC`: the melting point stood at 262 °C.

For `COc1cc(C(=O)N(C(C)C)C2CCCCC2)ccc1Cn1c(C)nc2cccnc21`, the melting point was in the range of 210 to 212 °C.

Compound `Cn1cnc(COc2nc3c(cc2C(C)(C)C)nnn3-c2ccccc2F)n1` had a melting point of 127 to 129 °C.

The compound `Clc1c(OCC2CO2)cccc1N1CCCCC1` (stereo not drawn) came in with a melting point of 55 to 57 °C.

Regarding `O=c1ccc(S(=O)(=O)c2cc3ccc(F)cc3[nH]2)n[nH]1`, the melting point is over 250 °C.

`Nc1ncnc2c1ncn2C[C@@H](CF)OCP(=O)(O)O` showed a melting point of 194 to 197 °C.

As to `CCOC(=O)N1CCC(Nc2nc3ccccc3n2Cc2ccccn2)CC1`, the melting point was found to be 162 °C.

In turn, `O=C(O)c1ccc(NCCCc2ccccc2)cn1` registered a melting point of 167 to 169 °C.

Consider `O=C(NCCO[N+](=O)[O-])c1ccsc1`, for which the melting point is 100 to 102 °C.

The compound `CCCNS(=O)(=O)c1cc2cc(P(=O)(OCC)OCC)c(=O)[nH]c2cc1Cl` yielded a melting point of over 300 °C.

As for `O=C(NC(=O)c1c(F)cccc1F)Nc1cc(Br)c(F)c(Cl)c1F`, the melting point is 225 to 227 °C.

Compound `NC(=O)[C@H]1[C@H](CS)N(Cc2ccccc2)C(=O)N1Cc1ccccc1` yielded a melting point of 119 to 122 °C.
